In patent US20070059242A1, “METHODS TO IDENTIFY THERAPEUTIC AGENTS” (priority 2005, published 2007):

Tests used:
[1] = Aldolization of ketoaldehyde 4a with amino acids (1H NMR); format: physicochemical
Experimental: Aldolization of ketoaldehyde 4a with amino acids. […] To this solution was added 1 equivalent of either: a) L-proline, b) glycine, c) L-lysine hydrochloride or d) L-lysine ethyl ester dihydrochloride. At time points the samples were analyzed by ^1H NMR.

[2] = Loss of extractable 5a from stored plasma; conditions: preliminary investigations
Experimental: Plasma samples were obtained from patients (n=8) who were scheduled to undergo carotid endarterectomy within 24 h. […] Control plasma samples were obtained from random patients (n=15) attending a general medical clinic and were analyzed 7 days after collection. In a typical procedure, plasma in EDTA (1 ml) was washed with dichloromethane (DCM, 3×1 mL). The combined organic fractions were evaporated in vacuo. The residue was dissolved in methanol (0.9 mL) and a solution of 2,4-dinitrophenyl hydrazine (100 μL, 0.01 M, Lancaster) and 1N HCl in ethanol was added. Nitrogen was bubbled through the solution for 5 min and then the solution was stirred for 2 h. The resultant solution was filtered through a 0.22 μm filter and the filtrate was analyzed by the HPLC assay vide supra.

Row | SMILES | aldolization of 4a ([1]; DMSO-d6 (800 μl) and D2O (80 μl) alone) | conversion of 4a into 5a ([1]; Gly, 24 h) | conversion of 4a into 5a ([1]; L-Lys(OEt).2HCl, 100 h) [%] | conversion of 4a into 5a ([1]; L-Lys.HCl, 24 h) | conversion of 4a into 5a ([1]; L-Pro, 2 h) | decrease of amount that can be extracted from plasma [2]
1 | CC(C)CCC[C@@H](C)[C@H]1CCC2C(CC=O)C([C@@]3(C)CC[C@H](O)CC3=O)CC[C@@]21C (stereo partly drawn) [4a, 3β-Hydroxy-5-oxo-5,6-secocholestan-6-al] | no aldolization | complete conversion | 62 | complete conversion | complete conversion | 
2 | CC(C)CCC[C@@H](C)[C@H]1CCC2C3C(CC[C@@]21C)[C@@]1(C)CC[C@H](O)C[C@@]1(O)[C@@H]3C=O (stereo partly drawn) [5a, 3β-Hydroxy-5β-hydroxy-B-norcholestane-6β-carboxaldehyde] |  |  |  |  |  | about 5 % per day
